As usually defined, the solubility is the concentration that dissolves in the medium under given conditions.

Data on one molecule can be found in patent EP4691458A1, “SELF-MICROEMULSION PHARMACEUTICAL PREPARATION COMPOSITION CONTAINING ALK KINASE INHIBITOR AND PREPARATION METHOD THEREFOR” (Shouyao Holdings (Beijing) Co., Ltd., priority 2023, dated 2024).

The nature of series [1]: Solubility of the compound of formula (I) at different pH. Type of series: physicochemical. On the procedure: (§1) The compound of formula (I) has strong hydrophobicity, poor water solubility, and significant pH dependence. It has high solubility at low pH (about 30 mg/ml at pH 1.2), and the solubility decreases sharply with increasing pH (about 10 ug/ml in water). […] Therefore, it is an urgent problem to overcome the shortcomings of the compound of formula (I), such as strong hydrophobicity, poor water solubility, and thermal instability, and to prepare it into a formulation with stable quality, good patient compliance, and wide clinical applicability.

Series [2] is described as follows: Thermal stability of the compound of formula (I). The settings on record: degradation impurities generated at high temperatures. The class given is physicochemical. On the procedure:
as §1

For the molecule `COc1cc(N2CCC(N(C)C)CC2)ccc1Nc1nc2c(c(Nc3ccccc3S(=O)(=O)C(C)C)n1)CCN2` [compound of formula (I), N^2-(4-(4-(dimethylamino)piperidin-1-yl)-2-methoxyphenyl)-N^4-(2-(isopropylsulfonyl)phenyl)-6,7-dihydro-5H-pyrrolo[2,3-d]pyrimidine-2,4-diamine], the solubility in series [1] (in water) was ~0.01 mg/mL; in series [1] (simulated gastric fluid, at pH 1.2), ~30 mg/mL. Moreover, the thermal stability result in series [2] is listed as “thermally unstable”.
